Measurements as given in EP4332093A1, “SALT CONTAINING PIPERAZINE POLYCYCLIC DERIVATIVE, CRYSTAL FORM THEREOF, PREPARATION METHOD THEREFOR, AND USE THEREOF” (Shanghai Hansoh Biomedical Co., Ltd., priority 2021, dated 2022).
Structures can show the parent of a compound that is named as a salt.

Columns and labels:
Format in all cases: physicochemical
[1] = Crystal form stability study of hydrochloride for 30 days; conditions: 30 days; light 5000lux, 60°C, 92.5% RH, 40°C & 75% RH
Experimental: The diluent 80% methanol solution was added to prepare a solution containing about 0.5 mg/mL hydrochloride. The mixture was sonicated for 30min to produce a clear solution. 1mL of the soluion was filtered and measured by HPLC. See "2.3.4" for the HPLC analysis method. The content of related substances was calculated according to the peak area normalization method, and the results are shown in Table 32 below. Table 32 HPLC data of hydrochloride in stability experimental conditions for 30 days

[2] = Salt form quantification (HPLC-ELSD); conditions: Conclusion from Cl- content compared with theoretical values
Experimental: The number of acids binding in the salt form was quantified by HPLC-ELSD test. An appropriate amount of NaCl was weighed, and a series of linear solutions of different concentrations with the diluent acetonitrile-water (50:50) was prepared. […] The above linear solution and hydrochloride samples solution was taken to filter. [table]

[3] = Grinding crystal transformation test; conditions: ground in a mortar for 5 min
[4] = Pressure crystal transformation test; conditions: tablet press at maximum pressure
Description: The tablet press was adjusted to the maximum pressure. It was pressed into a tablet and then was subjected to PXRD characterization.

[5] = Thermodynamic stability experiment of crystal form (pulping in solvents, XRPD); conditions: for Results after pulping (crystal form by XRPD): pulped for 1 week at room temperature and 50°C
Experimental: An organic solvent with a certain solubility was selected. […] The supernatant was discarded, and the solid was dried in vacuum (-0.1 Mpa) overnight at 50°C. The XRPD of the solid was determined and compared with XRPD of raw compound salt.

[6] = Solid stability experiment of crystal forms of salt (5 and 10 days); conditions: all conditions: light 5000lx, 60°C, 92.5% RH, 50°C 75% RH; 5 and 10 days
Experimental: About 1 mg of different crystal forms of salt were taken and placed under the conditions of light 5000lx, high temperature 60°C, high humidity 92.5%RH, high temperature and high humidity 50°C 75%RH for 5 days and 10 days. The salt content was determined by HPLC and external standard method, and the change of relevant substances was calculated by chromatographic peak area normalization method.

[7] = Hygroscopicity experiment of crystal form A of hydrochloride

SMILES: O=C(N[C@H]1C[C@H](CCN2CCN(c3cccc(Cl)c3Cl)CC2)C1)c1ncco1 [crystal form A of hydrochloride]
- crystal form change (PXRD) [1]: does not undergo crystal form change
- impurities (HPLC) [1]: do not increase significantly
- The number of hydrochloric acid binding [2]: The number of hydrochloric acid binding in crystal form A of hydrochloride is 1
- crystal transformation before and after grinding (PXRD) [3]: didn't undergo crystal transformation
- crystal transformation before and after pressure (PXRD) [4]: didn't undergo crystal transformation
- Results after pulping (crystal form by XRPD) ([5]; 1,4-Dioxane): Crystal form A
- crystal form after being pulped by different solvents (XRPD) ([5]; 1 week at room temperature and 50°C): the crystal form does not change
- Results after pulping (crystal form by XRPD) ([5]; 2-Butanone): Crystal form A
- Results after pulping (crystal form by XRPD) ([5]; 2-Methyl-tetrahydrofuran): Crystal form A
- Results after pulping (crystal form by XRPD) ([5]; Acetone): Crystal form A
- Results after pulping (crystal form by XRPD) ([5]; Acetonitrile): Crystal form A
- Results after pulping (crystal form by XRPD) ([5]; Dichloromethane): Crystal form A
- Results after pulping (crystal form by XRPD) ([5]; Ethanol): Crystal form A
- Results after pulping (crystal form by XRPD) ([5]; Ethyl acetate): Crystal form A
- Results after pulping (crystal form by XRPD) ([5]; Ethyl formate): Crystal form A
- Results after pulping (crystal form by XRPD) ([5]; Isopropanol): Crystal form A
- Results after pulping (crystal form by XRPD) ([5]; Methanol): Crystal form A
- Results after pulping (crystal form by XRPD) ([5]; Methyl tert-butyl ether): Crystal form A
- Results after pulping (crystal form by XRPD) ([5]; Tetrahydrofuran): Crystal form A
- Results after pulping (crystal form by XRPD) ([5]; Toluene): Crystal form A
- Results after pulping (crystal form by XRPD) ([5]; n-Heptane): Crystal form A
- crystal form stability (impurities) [6]: stable under all conditions
- hygroscopicity [7]: slightly hygroscopic
- XRPD pattern after humidification and dehumidification ([7]; 2 cycles, 0 to 95% relative humidity): does not change
- hygroscopic weight gain ([7]; RH 80%): 0.509%
